From the NIST ThermoML archive (doi:10.1016/j.fluid.2017.09.008) come the findings set out here.

Molecules are shown by their SMILES. Numbers after ± are expanded uncertainties.

A short description of the data set: excess molar enthalpy (molar enthalpy of mixing); xn = mol fraction of the nth substance listed. The following applies: 298.15 K, 101 kPa, Liquid, DSC [Setaram C80].

Consider `Cc1cccc(O)c1` [3-methylphenol] + CCO, for which the excess molar enthalpy runs as follows: (x1 = 0.2003) -0.792 ± 0.024 kJ/mol; (x1 = 0.4097) -1.23 ± 0.017 kJ/mol; (x1 = 0.5861) -1.15 ± 0.02 kJ/mol; (x1 = 0.7875) -0.687 ± 0.025 kJ/mol.

In the case of `COc1ccccc1O` [2-methoxyphenol] + CCO, the excess molar enthalpy was -0.03 ± 0.022 kJ/mol (x1 = 0.0168); -0.379 ± 0.017 kJ/mol (x1 = 0.1988); -0.549 ± 0.011 kJ/mol (x1 = 0.3994); -0.505 ± 0.013 kJ/mol (x1 = 0.608); -0.238 ± 0.019 kJ/mol (x1 = 0.7783).

As for `Cc1ccccc1O` [2-methylphenol] + CCO, the excess molar enthalpy is -1.11 ± 0.039 kJ/mol (x1 = 0.1954), -1.62 ± 0.035 kJ/mol (x1 = 0.4127), -1.65 ± 0.037 kJ/mol (x1 = 0.6007) and -0.944 ± 0.047 kJ/mol (x1 = 0.8013).
